Experimental data: patent US20260262643A1, “HERBICIDAL BENZOXAZINES” (FMC CORPORATION, priority 2022, published 2026)

Assays:
corn [1] = assay: Test C postemergence; type: in vivo, Zea mays; conditions: 10 days
Procedure, shortened: (§1)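 Visual injury ratings on a 0–100 scale (100 = complete control) were made against untreated controls 10 days after treatment in the greenhouse. Compounds, formulated with surfactant in non-phytotoxic solvent, were sprayed on soil preemergence or onto one- to two-leaf plants 2–10 cm tall postemergence.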

kochia [2] = assay: Test C preemergence; type: in vivo, Bassia scoparia; conditions: 0 to 100 scale (0 no effect, 100 complete control); for Plant response rating, Kochia: Preemergence, 500 g ai/ha, visual rating after 10 days; for Kochia plant response rating: Test C, preemergence, 125 g ai/ha
Procedure, shortened: as §1

corn [3] = assay: Test C preemergence; type: in vivo, Zea mays; conditions: 0 to 100 scale (0 no effect, 100 complete control); for Plant response rating, Corn: Preemergence, 500 g ai/ha, visual rating after 10 days; for Corn plant response rating: Test C, preemergence, 125 g ai/ha
Procedure, shortened: as §1

ragweed [4] = assay: Test C preemergence; type: in vivo, Ambrosia artemisiifolia; conditions: 0 to 100 scale (0 no effect, 100 complete control); for Plant response rating, Ragweed: Preemergence, 500 g ai/ha, visual rating after 10 days; for Ragweed plant response rating: Test C, preemergence, 125 g ai/ha
Procedure, shortened: as §1

ducksalad = assay: Test D flooded paddy test; type: in vivo, Heteranthera limosa; conditions: 250 g ai/ha, applied to paddy water, visual rating after 13 to 14 days, scale 0 to 100 (0 no effect, 100 complete control)
Procedure, shortened: (§2)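 Rating scale 0–100 (0 no effect, 100 complete control), visual, versus controls. Readout at 13–14 days after in-water application to 2-leaf plants in pots flooded 3 cm deep.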

oat, wild [5] = assay: Test C postemergence; type: in vivo, Avena fatua; conditions: 10 days
Procedure, shortened: as §1

wheat [6] = assay: Test C postemergence; type: in vivo, Triticum aestivum; conditions: 10 days
Procedure, shortened: as §1

blackgrass [7] = assay: Test C postemergence; type: in vivo, Alopecurus myosuroides; conditions: 10 days
Procedure, shortened: as §1

kochia [8] = assay: Test C postemergence; type: in vivo, Bassia scoparia; conditions: 10 days
Procedure, shortened: as §1

barnyardgrass [9] = assay: Test D flooded paddy test; type: in vivo, Echinochloa crus-galli; conditions: 250 g ai/ha, applied to paddy water, visual rating after 13 to 14 days, scale 0 to 100 (0 no effect, 100 complete control)
Procedure, shortened: as §2

soybean [10] = assay: Test C preemergence; type: in vivo, Glycine max; conditions: 0 to 100 scale (0 no effect, 100 complete control); for Plant response rating, Soybean: Preemergence, 500 g ai/ha, visual rating after 10 days; for Soybean plant response rating: Test C, preemergence, 125 g ai/ha
Procedure, shortened: as §1

barnyardgrass [11] = assay: Test C preemergence; type: in vivo, Echinochloa crusgalli; conditions: 0 to 100 scale (0 no effect, 100 complete control); for Plant response rating, Barnyardgrass: Preemergence, 500 g ai/ha, visual rating after 10 days; for Barnyardgrass plant response rating: Test C, preemergence, 125 g ai/ha
Procedure, shortened: as §1

green foxtail [12] = assay: Test C preemergence; type: in vivo, Setaria viridis; conditions: 0 to 100 scale (0 no effect, 100 complete control); for Plant response rating, Foxtail, Green: Preemergence, 500 g ai/ha, visual rating after 10 days; for Foxtail, Green plant response rating: Test C, preemergence, 125 g ai/ha
Procedure, shortened: as §1

galium = assay: Test C postemergence; type: in vivo, Galium aparine; conditions: 10 days
Procedure, shortened: as §1

barnyardgrass [13] = assay: Test C postemergence; type: in vivo, Echinochloa crusgalli; conditions: 10 days
Procedure, shortened: as §1

ryegrass, Italian [14] = assay: Test C preemergence; type: in vivo, Lolium multiflorum; conditions: 0 to 100 scale (0 no effect, 100 complete control); for Plant response rating, Ryegrass, Italian: Preemergence, 500 g ai/ha, visual rating after 10 days; for Ryegrass, Italian plant response rating: Test C, preemergence, 125 g ai/ha
Procedure, shortened: as §1

sedge, umbrella = assay: Test D flooded paddy test; type: in vivo, Cyperus difformis; conditions: 250 g ai/ha, applied to paddy water, visual rating after 13 to 14 days, scale 0 to 100 (0 no effect, 100 complete control)
Procedure, shortened: as §2

ragweed [15] = assay: Test C postemergence; type: in vivo, Ambrosia artemisiifolia; conditions: 10 days
Procedure, shortened: as §1

blackgrass [16] = assay: Test C preemergence; type: in vivo, Alopecurus myosuroides; conditions: 0 to 100 scale (0 no effect, 100 complete control); for Plant response rating, Blackgrass: Preemergence, 500 g ai/ha, visual rating after 10 days; for Blackgrass plant response rating: Test C, preemergence, 125 g ai/ha
Procedure, shortened: as §1

green foxtail [17] = assay: Test C postemergence; type: in vivo, Setaria viridis; conditions: 10 days
Procedure, shortened: as §1

rice = assay: Test D flooded paddy test; type: in vivo, Oryza sativa; conditions: 250 g ai/ha, applied to paddy water, visual rating after 13 to 14 days, scale 0 to 100 (0 no effect, 100 complete control)
Procedure, shortened: as §2

oat, wild [18] = assay: Test C preemergence; type: in vivo, Avena fatua; conditions: 0 to 100 scale (0 no effect, 100 complete control); for Plant response rating, Oat, Wild: Preemergence, 500 g ai/ha, visual rating after 10 days; for Oat, Wild plant response rating: Test C, preemergence, 125 g ai/ha
Procedure, shortened: as §1

pigweed, palmer [19] = assay: Test C preemergence; type: in vivo, Amaranthus palmeri; conditions: 0 to 100 scale (0 no effect, 100 complete control); for Plant response rating, Pigweed, Palmer: Preemergence, 500 g ai/ha, visual rating after 10 days; for Pigweed, Palmer plant response rating: Test C, preemergence, 125 g ai/ha
Procedure, shortened: as §1

pigweed, palmer [20] = assay: Test C postemergence; type: in vivo, Amaranthus palmeri; conditions: 10 days
Procedure, shortened: as §1

wheat [21] = assay: Test C preemergence; type: in vivo, Triticum aestivum; conditions: 0 to 100 scale (0 no effect, 100 complete control); for Plant response rating, Wheat: Preemergence, 500 g ai/ha, visual rating after 10 days; for Wheat plant response rating: Test C, preemergence, 125 g ai/ha
Procedure, shortened: as §1

horseweed = assay: Test C postemergence; type: in vivo, Erigeron canadensis; conditions: 10 days
Procedure, shortened: as §1

ryegrass, Italian [22] = assay: Test C postemergence; type: in vivo, Lolium multiflorum; conditions: 10 days
Procedure, shortened: as §1

soybean [23] = assay: Test C postemergence; type: in vivo, Glycine max; conditions: 10 days
Procedure, shortened: as §1

[24] = 125 g ai/ha, postemergence, 0 to 100 scale, 0 no effect, 100 complete control
[25] = Postemergence, 500 g ai/ha, visual 0 to 100 scale (0 no effect, 100 complete control)

Cc1ccc(-n2cnc(C(C)C)n2)cc1C(=O)N1C[C@H](C)Oc2c1cccc2C(F)(F)F [Compound 170]
20: Plant response rating, Corn (corn [3]) | Corn plant response rating (corn [3]) | Ragweed plant response rating (ragweed [4]) | Plant response rating, Oat, Wild (oat, wild [5]; [24]) | Plant response rating, Barnyardgrass (barnyardgrass [13]; [24]) | Plant response rating, Foxtail, Green (green foxtail [17]; [24])
90: Kochia plant response rating (kochia [2]) | Barnyardgrass plant response rating (barnyardgrass [11]) | Plant response rating, Ragweed (ragweed [15]; [25]) | Plant response rating, Foxtail, Green (green foxtail [17]; [25]) | Plant response rating, Wheat (wheat [21]) | Plant response rating, Horseweed (horseweed; [25]) | Plant response rating, Ryegrass, Italian (ryegrass, Italian [22]; [25])
15: Plant response rating, Rice (Flood) (rice)
95: Plant response rating, Sedge, Umbrella (Flood) (sedge, umbrella)
30: Plant response rating, Corn (corn [1]; [24]) | Plant response rating, Blackgrass (blackgrass [7]; [24])
55: Plant response rating, Ducksalad (Flood) (ducksalad)
80: Plant response rating, Blackgrass (blackgrass [7]; [25]) | Plant response rating, Kochia (kochia [8]; [24]) | Ryegrass, Italian plant response rating (ryegrass, Italian [14]) | Plant response rating, Blackgrass (blackgrass [16]) | Plant response rating, Oat, Wild (oat, wild [18]) | Plant response rating, Horseweed (horseweed; [24])
10: Plant response rating, Wheat (wheat [6]; [24])
0: Plant response rating, Barnyardgrass (Flood) (barnyardgrass [9])
100: Plant response rating, Kochia (kochia [2]) | Plant response rating, Kochia (kochia [8]; [25]) | Plant response rating, Soybean (soybean [10]) | Plant response rating, Barnyardgrass (barnyardgrass [11]) | Plant response rating, Foxtail, Green (green foxtail [12]) | Foxtail, Green plant response rating (green foxtail [12]) | Plant response rating, Galium (galium; [24]) | Plant response rating, Galium (galium; [25]) | Plant response rating, Ryegrass, Italian (ryegrass, Italian [14]) | Plant response rating, Pigweed, Palmer (pigweed, palmer [19]) | Pigweed, Palmer plant response rating (pigweed, palmer [19]) | Plant response rating, Pigweed, Palmer (pigweed, palmer [20]; [24]) | Plant response rating, Pigweed, Palmer (pigweed, palmer [20]; [25]) | Plant response rating, Soybean (soybean [23]; [24]) | Plant response rating, Soybean (soybean [23]; [25])
60: Plant response rating, Oat, Wild (oat, wild [5]; [25]) | Oat, Wild plant response rating (oat, wild [18]) | Plant response rating, Ryegrass, Italian (ryegrass, Italian [22]; [24])
50: Plant response rating, Corn (corn [1]; [25]) | Plant response rating, Wheat (wheat [6]; [25]) | Plant response rating, Barnyardgrass (barnyardgrass [13]; [25]) | Blackgrass plant response rating (blackgrass [16]) | Wheat plant response rating (wheat [21])
70: Plant response rating, Ragweed (ragweed [4]) | Soybean plant response rating (soybean [10]) | Plant response rating, Ragweed (ragweed [15]; [24])

CCn1cnc(-c2cccc(C(=O)N3C[C@H](C)Oc4c(Cl)cccc43)c2)n1 [Compound 173]
60: Plant response rating, Ragweed (ragweed [4])
0: Plant response rating, Corn (corn [1]; [24]) | Plant response rating, Corn (corn [1]; [25]) | Plant response rating, Kochia (kochia [2]) | Kochia plant response rating (kochia [2]) | Plant response rating, Corn (corn [3]) | Corn plant response rating (corn [3]) | Plant response rating, Ducksalad (Flood) (ducksalad) | Plant response rating, Oat, Wild (oat, wild [5]; [24]) | Plant response rating, Oat, Wild (oat, wild [5]; [25]) | Plant response rating, Wheat (wheat [6]; [24]) | Plant response rating, Wheat (wheat [6]; [25]) | Plant response rating, Blackgrass (blackgrass [7]; [24]) | Plant response rating, Blackgrass (blackgrass [7]; [25]) | Plant response rating, Kochia (kochia [8]; [24]) | Plant response rating, Barnyardgrass (Flood) (barnyardgrass [9]) | Plant response rating, Soybean (soybean [10]) | Soybean plant response rating (soybean [10]) | Plant response rating, Barnyardgrass (barnyardgrass [11]) | Barnyardgrass plant response rating (barnyardgrass [11]) | Plant response rating, Foxtail, Green (green foxtail [12]) | Foxtail, Green plant response rating (green foxtail [12]) | Plant response rating, Sedge, Umbrella (Flood) (sedge, umbrella) | Plant response rating, Ragweed (ragweed [15]; [24]) | Plant response rating, Blackgrass (blackgrass [16]) | Blackgrass plant response rating (blackgrass [16]) | Plant response rating, Foxtail, Green (green foxtail [17]; [24]) | Plant response rating, Rice (Flood) (rice) | Plant response rating, Oat, Wild (oat, wild [18]) | Oat, Wild plant response rating (oat, wild [18]) | Plant response rating, Pigweed, Palmer (pigweed, palmer [19]) | Pigweed, Palmer plant response rating (pigweed, palmer [19]) | Plant response rating, Pigweed, Palmer (pigweed, palmer [20]; [24]) | Plant response rating, Wheat (wheat [21]) | Wheat plant response rating (wheat [21]) | Plant response rating, Ryegrass, Italian (ryegrass, Italian [22]; [24]) | Plant response rating, Ryegrass, Italian (ryegrass, Italian [22]; [25]) | Plant response rating, Soybean (soybean [23]; [24])
50: Plant response rating, Galium (galium; [25]) | Plant response rating, Ryegrass, Italian (ryegrass, Italian [14])
30: Ragweed plant response rating (ragweed [4]) | Plant response rating, Kochia (kochia [8]; [25]) | Plant response rating, Ragweed (ragweed [15]; [25]) | Plant response rating, Soybean (soybean [23]; [25])
20: Plant response rating, Galium (galium; [24]) | Ryegrass, Italian plant response rating (ryegrass, Italian [14]) | Plant response rating, Pigweed, Palmer (pigweed, palmer [20]; [25])
40: Plant response rating, Foxtail, Green (green foxtail [17]; [25])
10: Plant response rating, Barnyardgrass (barnyardgrass [13]; [24]) | Plant response rating, Barnyardgrass (barnyardgrass [13]; [25]) | Plant response rating, Horseweed (horseweed; [24]) | Plant response rating, Horseweed (horseweed; [25])
